Measurements reported in the NIST ThermoML archive (doi:10.1021/je700152c).

Experiment: molar heat capacity at saturation pressure

CCCCn1cc[n+](C)c1.Cc1ccc(S(=O)(=O)[O-])cc1 [1-butyl-3-methylimidazolium tosylate]
Details | molar heat capacity [J/K/mol]
283.38 K, Crystal 1 | 400.74
283.57 K, Crystal 1 | 401.36
284.36 K, Metastable crystal | 414.71
285.22 K, Crystal 1 | 405.4
285.23 K, Crystal 1 | 405.09
285.41 K, Crystal 1 | 405.71
286.18 K, Metastable crystal | 418.44
287.05 K, Crystal 1 | 409.74
287.07 K, Crystal 1 | 409.12
287.24 K, Crystal 1 | 410.37
288 K, Metastable crystal | 422.47
288.87 K, Crystal 1 | 414.71
288.9 K, Crystal 1 | 414.09
289.06 K, Crystal 1 | 415.64
289.81 K, Metastable crystal | 426.82
290.68 K, Crystal 1 | 419.06
290.72 K, Crystal 1 | 418.75
290.87 K, Crystal 1 | 419.99
291.62 K, Metastable crystal | 431.16
292.49 K, Crystal 1 | 423.71
292.53 K, Crystal 1 | 423.4
292.67 K, Crystal 1 | 424.02
293.42 K, Metastable crystal | 435.51
294.29 K, Crystal 1 | 427.13
294.33 K, Crystal 1 | 428.06
294.47 K, Crystal 1 | 427.44
295.21 K, Metastable crystal | 439.86
296.09 K, Crystal 1 | 431.47
296.13 K, Crystal 1 | 432.72
296.27 K, Crystal 1 | 432.09
296.99 K, Metastable crystal | 445.13
297.87 K, Crystal 1 | 436.13
297.92 K, Crystal 1 | 437.06
298.05 K, Crystal 1 | 436.75
298.77 K, Metastable crystal | 450.1
299.66 K, Crystal 1 | 440.79
299.71 K, Crystal 1 | 442.65
299.83 K, Crystal 1 | 442.03
300.21 K, Crystal 1 | 440.48
300.54 K, Metastable crystal | 455.38
301.54 K, Crystal 1 | 446.68
301.6 K, Crystal 1 | 447.93
301.72 K, Crystal 1 | 447.62
302.1 K, Crystal 1 | 445.44
302.41 K, Metastable crystal | 461.89
303.54 K, Crystal 1 | 452.58
303.6 K, Crystal 1 | 453.2
303.71 K, Crystal 1 | 453.82
304.1 K, Crystal 1 | 451.03
304.39 K, Metastable crystal | 469.03
305.52 K, Crystal 1 | 458.79
305.59 K, Crystal 1 | 460.34
305.69 K, Crystal 1 | 460.03
306.09 K, Crystal 1 | 457.24
306.36 K, Metastable crystal | 476.79
307.5 K, Crystal 1 | 465.93
307.57 K, Crystal 1 | 467.79
307.67 K, Crystal 1 | 467.17
308.07 K, Crystal 1 | 463.76
308.32 K, Metastable crystal | 485.8
309.47 K, Crystal 1 | 473.69
309.54 K, Crystal 1 | 474.93
309.64 K, Crystal 1 | 475.24
310.04 K, Crystal 1 | 471.52
310.26 K, Metastable crystal | 496.04
311.42 K, Crystal 1 | 482.69
311.49 K, Crystal 1 | 484.55
311.59 K, Crystal 1 | 484.24
311.76 K, Metastable crystal | 501.63
311.99 K, Crystal 1 | 479.59
313.37 K, Crystal 1 | 492.63
313.44 K, Crystal 1 | 494.8
313.53 K, Crystal 1 | 493.56
313.67 K, Metastable crystal | 515.91
313.94 K, Crystal 1 | 489.21
315.3 K, Crystal 1 | 503.49
315.37 K, Crystal 1 | 505.97
315.46 K, Crystal 1 | 503.18
315.56 K, Metastable crystal | 532.05
315.87 K, Crystal 1 | 499.45
317.22 K, Crystal 1 | 514.97
317.29 K, Crystal 1 | 518.39
317.39 K, Crystal 1 | 512.18
317.42 K, Metastable crystal | 550.67
317.78 K, Crystal 1 | 512.49
319.11 K, Crystal 1 | 529.25
319.18 K, Crystal 1 | 534.53
319.26 K, Metastable crystal | 573.33
319.29 K, Crystal 1 | 524.29
319.67 K, Crystal 1 | 527.08
320.98 K, Crystal 1 | 545.71
321.05 K, Crystal 1 | 553.47
321.06 K, Metastable crystal | 600.03
321.17 K, Crystal 1 | 538.26
321.53 K, Crystal 1 | 544.77
322.82 K, Crystal 1 | 565.88
322.82 K, Metastable crystal | 633.24
322.89 K, Crystal 1 | 575.51
323.03 K, Crystal 1 | 555.95
323.37 K, Crystal 1 | 566.5
324.53 K, Metastable crystal | 675.15
324.63 K, Crystal 1 | 590.72
324.69 K, Crystal 1 | 602.51
324.85 K, Crystal 1 | 578.61
325.17 K, Crystal 1 | 593.51
326.19 K, Metastable crystal | 727.92
326.41 K, Crystal 1 | 621.45
326.45 K, Crystal 1 | 635.42
326.64 K, Crystal 1 | 607.48
326.92 K, Crystal 1 | 628.28
328.13 K, Crystal 1 | 660.56
328.17 K, Crystal 1 | 676.7
328.38 K, Crystal 1 | 644.42
328.62 K, Crystal 1 | 675.15
329.79 K, Crystal 1 | 710.85
329.82 K, Crystal 1 | 728.23
330.07 K, Crystal 1 | 691.29
330.24 K, Crystal 1 | 740.02
340.93 K, Metastable crystal | 542.91
342.74 K, Crystal 1 | 648.45
342.82 K, Liquid | 542.91
343.34 K, Crystal 1 | 571.47
343.81 K, Crystal 1 | 550.05
343.97 K, Liquid | 543.84
344.54 K, Liquid | 545.4
344.72 K, Liquid | 544.77
345.34 K, Liquid | 544.46
346.06 K, Liquid | 544.77
346.43 K, Liquid | 546.33
346.46 K, Liquid | 546.64
346.61 K, Liquid | 546.02
347.35 K, Liquid | 545.71
348.14 K, Liquid | 546.02
348.31 K, Liquid | 547.57
348.49 K, Liquid | 547.26
348.72 K, Liquid | 547.57
348.77 K, Liquid | 547.57
350.2 K, Liquid | 549.43
350.6 K, Liquid | 549.12
350.64 K, Liquid | 549.12
352.08 K, Liquid | 550.98
352.48 K, Liquid | 550.36
352.5 K, Liquid | 550.36
353.97 K, Liquid | 552.22
354.36 K, Liquid | 551.6
354.37 K, Liquid | 551.91
355.86 K, Liquid | 553.47
356.24 K, Liquid | 553.16
356.25 K, Liquid | 553.16
357.74 K, Liquid | 555.02
358.11 K, Liquid | 554.71
358.12 K, Liquid | 554.71
359.64 K, Liquid | 556.26
359.97 K, Liquid | 555.95
360 K, Liquid | 555.95
361.53 K, Liquid | 557.81
361.84 K, Liquid | 557.5
361.88 K, Liquid | 557.5
363.42 K, Liquid | 559.05
363.75 K, Liquid | 558.74
365.3 K, Liquid | 560.3
365.62 K, Liquid | 559.98
367.19 K, Liquid | 561.85
367.5 K, Liquid | 561.54
